This note sets out measurements from paper PMC2816240 (European Journal of Nuclear Medicine and Molecular Imaging, 2009).

In series [1] the test system is male Wistar rats. The format is in vivo, rat. The settings on record: 20 h post-injection, n = 5 rats, vs PBS.
For series [2], the system named is male Wistar rats. Description: Adverse effects of injection in rats. The format is in vivo. The settings on record: peptide #6 0.2, 1 or 5 mg per rat i.v.

Turning to “ENFVAFVDKCCAADDKEA CFAVEGPKLVVSTQTALA [peptide #6]”, the “uptake of 111In-octreotide in the pancreas and other organs” value in series [1] (peptide #6 5 mg i.v.) was “unaffected”. Also, in series [1] (peptide #6 i.v.), the “uptake of 111In-minigastrin and 111In-exendin in organs other than the kidneys” value is on record as “not affected”. Further, in series [2], the “adverse effects of injection” value is reported as “no adverse effects”.
